Columns and labels:
[1] = tested on: HIV (LAV strain); assay: Anti-HIV/LAV activity in CEM-F cells, p-24 gag protein ELISA; format: cell-based; details: Human immunodeficiency virus 1, 192 h, eight days, p-24 gag protein in supernatant, read-out: HIV (ID50)
Procedure: The anti-HIV/LAV activity was measured in cultures of CEM-F cells. The CEM cells were infected with approximately 30 TCID₅₀ (50% tissue culture infectious dose) of HIV (LAV strain). The cells were then incubated for 45 minutes at 37°C. The test compounds, in culture medium, were added at various concentrations to the infected cells and then incubated for a further eight days. After eight days, the antiviral activity was evaluated in the culture media supernatant for p-24 gag protein by an enzyme capture assay (ELISA). The antiviral activity was expressed as the dose that inhibits 50% of the virus expression (ID₅₀ in µM) as detected by the assay described.

[2] = tested on: Murine leukemia virus (MuLV); assay: UV-XC plaque assay against murine retroviruses; format: cell-based; details: SC1, SC-1 cells
Procedure: The compounds were evaluated for antiviral activity against Murine leukemia virus (MuLV) strains using the UV-XC plaque assay (Rowe, et al, "Virology", 42:1136, 1970).
The MuLV strains were grown in feral mouse cells (SC-1) and used for antiviral tests using the UV-XC plaque assay. Briefly, SC-1 cells are grown as monolayers in 4-well tissue culture plates and inoculated with approximately 50-100 plaque forming units of MuLV in 0.5 mL of 5% EMEM containing 20 ug/mL DEAE/Dextran. After 1 hour adsorption, the inoculum is removed and 5 mL of 5% EMEM containing three-fold dilutions of the appropriate drug are added. Five days later, the cultures are UV-irradiated with an ultraviolet lamp and rat XC sarcoma cells are added to the cultures. Three to four days after UV-irradiation, the cell cultures are stained with Giemsa stain and the plaques are enumerated. Antiviral activity is expressed in terms of the reduction in the mean number of UV-XC plaques counted in the drug treated, virus-infected cultures compared with mean number of plaques counted in untreated, virus-infected control cultures.

SMILES	IC50 [1] [µM]	IC50 [2] [µM]
Cc1cn([C@H]2C[C@H](N=[N+]=[N-])[C@@H](CO)O2)c(=O)[nH]c1=O [AZT, 3′-Azido-3′-deoxythymidine, reference compound]	1	0.0066
Cc1cn([C@H]2C[C@H](CO)[C@@H](CO)O2)c(=O)[nH]c1=O [Example 4², 1-(2,3-Dideoxy-3-C-hydroxymethyl-β-D-erythro-pentofuranosyl)thymine]	> 10	17.7
Cc1cn([C@@H]2C[C@H](CO)[C@@H](CO)O2)c(=O)[nH]c1=O [Example 4³, 1-(2,3-Dideoxy-3-C-hydroxymethyl-α-D-erythropentofuranosyl)thymine]		> 32
Nc1ccn([C@@H]2O[C@H](CO)[C@@H](CO)[C@H]2O)c(=O)n1 [Example 8, 1-(3-Deoxy-3-C-hydroxymethyl-β-D-ribofuranosyl)cytosine]	0.8	> 100
O=c1ccn([C@H]2C[C@H](CO)[C@@H](CO)O2)c(=O)[nH]1 [Example 12, 1-(2,3-Dideoxy-3-C-hydroxymethyl-β-D-erythro-pentofuranosyl)uracil]	> 10	83
Nc1ccn([C@H]2C[C@H](CO)[C@@H](CO)O2)c(=O)n1 [Example 16², 1-(2,3-Dideoxy-3-C-hydroxymethyl-β-D-erythro-pentofuranosyl)cytosine]	> 0.1	0.06
Nc1ccn([C@@H]2C[C@H](CO)[C@@H](CO)O2)c(=O)n1 [Example 16³, 1-(2,3-Dideoxy-3-C-hydroxymethyl-α-D-erythro-pentofuranosyl)cytosine]	4.7	
Nc1ncnc2c1ncn2[C@H]1C[C@H](CO)[C@@H](CO)O1 [Example 25, 9-[2,3-Dideoxy-3-C-hydroxymethyl-β-D-erythro-pentofuranosyl]adenine]	> 10	
O=c1[nH]cnc2c1ncn2[C@H]1C[C@H](CO)[C@@H](CO)O1 [Example 26, 9-(2,3-Dideoxy-3-C-hydroxymethyl-β-D-erythro-pentofuranosyl)hypoxanthine]	> 10	5

— patent EP0391411A2, “3'-Substituted methyl nucleosides as antiviral agents” (Bristol-Myers Squibb Company, priority 1989, dated 1990)
